Assay results published in patent publication US20230107216A1, “PANTETHEINE DERIVATIVES AND USES THEREOF” (Comet Therapeutics, Inc., priority 2018, published 2023).
Like-named read-outs stand apart in the source and are kept apart here.

Legend:
[1] = tested on: primary fibroblasts (healthy controls and PA, MMA, BCKDK, PDH, VLCAD, LS, PC, GA, VLCFA, KSS, FXN, HD); assay: Measurement of ROS (H2DCFDA) in primary fibroblasts; format: cell-based, human; conditions: procedure Example 812; for inhibition at 10 µM: Homo sapiens
Method in brief: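 Patient and healthy-control primary fibroblasts switched to supplemented DMEM 24 h before assay, then treated with compound (10 μM) plus H2DCFDA (22 μM) for 2 h (PA, MMA lines) or 24 h (other lines). Kinetic fluorescence at 492/527 nm over 60 min; only live cells analysed.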

[2] = tested on: Methylmalonic Acidemia (MMA) primary fibroblasts Tsi 5224; assay: Mitochondrial respiration, XFe96 Extracellular Flux Analyzer (OCR/ECAR), MMA fibroblasts Tsi 5224; format: cell-based; conditions: Homo sapiens, Fibroblast;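 as to Increase in Maximal Respiratory Capacity AUC: relative to vehicle DMSO control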
Method in brief: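 Primary fibroblasts (20000 cells/well) were held 24 h in supplemented DMEM before Seahorse OCR/ECAR profiling. Compounds at 10 to 50 μM or 0.1% DMSO were injected after baseline, then oligomycin 1 μg/ml, FCCP, and rotenone/antimycin A 0.5 μM. Values were normalized to Hoechst nuclear counts, baselined to pre-compound, and expressed relative to vehicle.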

[3] = FXN GM04078, Assay Condition C, read-out: Decreased ROS by at least 10%
[4] = FXN GM04078, Assay Condition C, read-out: Decreased ROS by at least 30%
[5] = Fibroblast, PDH GM01503, Assay Condition C, read-out: Decreased ROS by at least 10%
[6] = Fibroblast, VLCAD GM17475, Assay Condition C, read-out: Decreased ROS by at least 30%
[7] = MMA Tsi 5224, assay condition A (10 mM glucose, 2 mM L-glutamine, 1 mM pyruvate, 10% FBS), read-out: Increase in Maximal Respiratory Capacity AUC
[8] = Fibroblast, BCKD GM00612, Assay Condition A, read-out: Decreased ROS by at least 10%
[9] = Fibroblast, VLCFA GM13262, Assay Condition C, read-out: Decreased ROS by at least 30%
[10] = MMA Tsi 5224, assay condition D (1 mM glucose, 10% FBS), read-out: Increase in Maximal Respiratory Capacity AUC
[11] = Fibroblast, VLCAD GM17475, Assay Condition C, read-out: Decreased ROS by at least 10%
[12] = Fibroblast, PDH GM01503, Assay Condition C, read-out: Decreased ROS by at least 30%
[13] = Fibroblast, NPC1 GM22879, Assay Condition C, read-out: Decreased ROS by at least 10%
[14] = Fibroblast, NPC1 GM22879, Assay Condition C, read-out: Decreased ROS by at least 30%
[15] = Fibroblast, BCKD GM00649, Assay Condition C, read-out: Decreased ROS by at least 30%

CCCCCCC(=O)SCCNC(=O)CCNC(=O)[C@H](O)C(C)(C)CO [Compound 372, (2R)—N-(2-[[2-(heptanoylsulfanyl)ethyl]carbamoyl]ethyl)-2,4-dihydroxy-3,3-dimethylbutanamide]
inhibition at 10 µM [1, 3]: ≥ 10%
inhibition at 10 µM [1, 4]: ≥ 30%

CCC(=O)CC(=O)SCCNC(=O)CCNC(=O)[C@H](O)C(C)(C)CO [Compound 382, (2R)-2,4-dihydroxy-3,3-dimethyl-N-[2-([2-[(3-oxopentanoyl)sulfanyl]ethyl]carbamoyl)ethyl]butanamide]
inhibition at 10 µM [1, 5]: ≥ 10%
inhibition at 10 µM [1, 6]: ≥ 30%
inhibition at 10 µM [1, 3]: ≥ 10%
inhibition at 10 µM [1, 4]: ≥ 30%
activation at 10 µM [2, 7]: ≥ 10%

CCC(C)C(=O)CC(=O)SCCNC(=O)CCNC(=O)[C@H](O)C(C)(C)CO (stereo partly drawn) [Compound 1240, S-(2-(3-((R)-2,4-dihydroxy-3,3-dimethylbutanamido)propanamido)ethyl) 4-methyl-3-oxohexanethioate]
inhibition at 10 µM [1, 8]: ≥ 10%
inhibition at 10 µM [1, 9]: ≥ 30%
inhibition at 10 µM [1, 3]: ≥ 10%
inhibition at 10 µM [1, 4]: ≥ 30%
activation at 10 µM [2, 7]: ≥ 10%
activation at 10 µM [2, 10]: ≥ 10%

CC[C@@H](O)CC(=O)SCCNC(=O)CCNC(=O)[C@H](O)C(C)(C)CO [Compound 1245, (2R)-2,4-dihydroxy-N-{2-[(2-{[(3R)-3-hydroxypentanoyl]sulfanyl}ethyl)carbamoyl]ethyl}-3,3-dimethylbutanamide]
inhibition at 10 µM [1, 11]: ≥ 10%
inhibition at 10 µM [1, 6]: ≥ 30%

CC(C)(CO)[C@@H](O)C(=O)NCCC(=O)NCCSC(=O)C1CCC(=O)N1 (stereo partly drawn) [Compound 1227, S-2-{3-[(R)-2,4-dihydroxy-3,3-dimethylbutyrylamino]propionylamino}ethyl 5-oxo-2-pyrrolidinecarbothioate]
activation at 10 µM [2, 10]: ≥ 10%
activation at 10 µM ([2]; MMA Tsi 5224, assay condition D (1 mM glucose, 10% FBS), read-out: Increase in Spare Capacity AUC): ≥ 10%

CC1(CC(=O)SCCNC(=O)CCNC(=O)[C@H](O)C(C)(C)CO)OCCO1 [Compound 1252, (R)—S-(2-(3-(2,4-dihydroxy-3,3-dimethylbutanamido)propanamido)ethyl)-2-(2-methyl-1,3-dioxolan-2-yl)ethanethioate]
inhibition at 10 µM [1, 5]: ≥ 10%
inhibition at 10 µM [1, 12]: ≥ 30%
activation at 10 µM [2, 10]: ≥ 10%

CC(C(=O)SCCNC(=O)CCNC(=O)[C@H](O)C(C)(C)CO)[C@@H](C)O (stereo partly drawn) [Compound 1244, (2R)-2,4-dihydroxy-N-{2-[(2-{[(3R)-3-hydroxy-2-methylbutanoyl]sulfanyl}ethyl)carbamoyl]ethyl}-3,3-dimethylbutanamide]
inhibition at 10 µM [1, 8]: ≥ 10%
inhibition at 10 µM [1, 9]: ≥ 30%
activation at 10 µM [2, 7]: ≥ 10%

COC(=O)CCC(=O)SCCNC(=O)CCNC(=O)[C@H](O)C(C)(C)COC(C)=O [Compound 138]
inhibition at 10 µM [1, 13]: ≥ 10%
inhibition at 10 µM [1, 14]: ≥ 30%
inhibition at 10 µM [1, 3]: ≥ 10%

COC(=O)/C=C/C(=O)SCCNC(=O)CCNC(=O)[C@H](O)C(C)(C)COP(=O)(O)O [Compound 73, methyl (R,E)-4-((2-(3-(2-hydroxy-3,3-dimethyl-4-(phosphonooxy)butanamido)propanamido)ethyl)thio)-4-oxobut-2-enoate]
inhibition at 10 µM [1, 13]: ≥ 10%
activation at 10 µM [2, 10]: ≥ 10%

CC(O)CC(O)CC(O)CC(=O)SCCNC(=O)CCNC(=O)[C@H](O)C(C)(C)CO (some centres unmarked) [Compound 401]
inhibition at 10 µM [1, 11]: ≥ 10%
inhibition at 10 µM [1, 6]: ≥ 30%

CC(C)(CO)[C@@H](O)C(=O)NCCC(=O)NCCSC(=O)CC(O)C(=O)O (some centres unmarked) [Compound 39]
inhibition at 10 µM [1, 11]: ≥ 10%
activation at 10 µM [2, 7]: ≥ 10%

CC(C)(CO)[C@@H](O)C(=O)NCCC(=O)NCCSC(=O)CC(=O)CCC(=O)O [Compound 2, 6-[(2-[3-[(2R)-2,4-dihydroxy-3,3-dimethylbutanamido]propanamido]ethyl)sulfanyl]-4,6-dioxohexanoic acid]
inhibition at 10 µM [1, 8]: ≥ 10%
inhibition at 10 µM [1, 15]: ≥ 30%
inhibition at 10 µM [1, 3]: ≥ 10%
inhibition at 10 µM [1, 4]: ≥ 30%

CC(C)C(=O)CC(=O)SCCNC(=O)CCNC(=O)[C@H](O)C(C)(C)CO [Compound 1239, (R)—S-(2-(3-(2,4-dihydroxy-3,3-dimethylbutanamido)propanamido)ethyl) 4-methyl-3-oxopentanethioate]
inhibition at 10 µM [1, 8]: ≥ 10%
inhibition at 10 µM [1, 9]: ≥ 30%
inhibition at 10 µM [1, 3]: ≥ 10%
inhibition at 10 µM [1, 4]: ≥ 30%
activation at 10 µM [2, 10]: ≥ 10%

C[C@H](O)CC(=O)CC(=O)SCCNC(=O)CCNC(=O)[C@H](O)C(C)(C)CO [Compound 1306, (2R)-2,4-dihydroxy-N-[2-[(2-[[(5S)-5-hydroxy-3-oxohexanoyl]sulfanyl]ethyl)carbamoyl]ethyl]-3,3-dimethylbutanamide]
Decreased ROS by at least 30% ([1]; Healthy GM05659, Assay Condition A): ≥ 30%
Decreased ROS by at least 30% ([1]; Healthy GM23974, Assay Condition A): ≥ 30%
inhibition at 10 µM [1, 5]: ≥ 10%
inhibition at 10 µM [1, 12]: ≥ 30%
inhibition at 10 µM [1, 3]: ≥ 10%
inhibition at 10 µM [1, 4]: ≥ 30%

COC(=O)C(C)C(=O)SCCNC(=O)CCNC(=O)[C@H](O)C(C)(C)CO (some centres unmarked) [Compound 405]
inhibition at 10 µM ([1]; Fibroblast, BCKD GM00649, Assay Condition C, read-out: Decreased ROS by at least 10%): ≥ 10%
inhibition at 10 µM [1, 15]: ≥ 30%

C[C@@H](O)CC(=O)CC(=O)SCCNC(=O)CCNC(=O)[C@H](O)C(C)(C)CO [Compound 42, (2R)-2,4-dihydroxy-N-[2-[(2-[[(5R)-5-hydroxy-3-oxohexanoyl]sulfanyl]ethyl)carbamoyl]ethyl]-3,3-dimethylbutanamide]
inhibition at 10 µM [1, 14]: ≥ 30%
inhibition at 10 µM [1, 5]: ≥ 10%
activation at 10 µM [2, 7]: ≥ 10%

CC(C)(COC(=O)CCC(=O)O)[C@@H](O)C(=O)NCCC(=O)NCCS [Compound 1310, (R)-4-(3-hydroxy-4-((3-((2-mercaptoethyl)amino)-3-oxopropyl)amino)-2,2-dimethyl-4-oxobutoxy)-4-oxobutanoic acid]
inhibition at 10 µM [1, 8]: ≥ 10%
inhibition at 10 µM [1, 9]: ≥ 30%

CC(O)C(C(=O)SCCNC(=O)CCNC(=O)[C@H](O)C(C)(C)CO)C(C)O (stereo partly drawn) [Compound 1285, (2R)-2,4-dihydroxy-N-[2-[(2-[[3-hydroxy-2-(1-hydroxyethyl)butanoyl]sulfanyl]ethyl)carbamoyl]ethyl]-3,3-dimethylbutanamide]
inhibition at 10 µM [1, 8]: ≥ 10%
inhibition at 10 µM [1, 14]: ≥ 30%

CC(C)(CO)[C@@H](O)C(=O)NCCC(=O)NCCSC(=O)CCC(=O)O [Compound 1, (R)-4-((2-(3-(2,4-dihydroxy-3,3-dimethylbutanamido)propanamido)ethyl)thio)-4-oxobutanoic acid]
activation at 10 µM [2, 7]: ≥ 10%
activation at 10 µM ([2]; MMA Tsi 5224, assay condition B (1 mM glucose, 2 mM L-glutamine, 1 mM pyruvate, 10% FBS), read-out: Increase in Maximal Respiratory Capacity AUC): ≥ 10%

CC(=O)SCCNC(=O)CCNC(=O)[C@H](O)C(C)(C)COC(=O)CCC(=O)O [Compound 1242, (R)-12-hydroxy-13,13-dimethyl-2,7,11,16-tetraoxo-15-oxa-3-thia-6,10-diazanonadecan-19-oic acid]
activation at 10 µM [2, 10]: ≥ 10%

CC(=O)SCCNC(=O)CCNC(=O)[C@H](O)C(C)(C)COC(=O)CN [Compound 560, (3R)-3-[(2-[[2-(acetylsulfanyl)ethyl]carbamoyl]ethyl)carbamoyl]-3-hydroxy-2,2-dimethylpropyl 2-aminoacetate]
inhibition at 10 µM [1, 3]: ≥ 10%

CC(C)(CO)[C@@H](O)C(=O)NCCC(=O)NCCSC(=O)CCCO [Compound 1304, (2R)-2,4-dihydroxy-N-[2-([2-[(4-hydroxybutanoyl)sulfanyl]ethyl]carbamoyl)ethyl]-3,3-dimethylbutanamide]
inhibition at 10 µM [1, 5]: ≥ 10%
inhibition at 10 µM [1, 12]: ≥ 30%

CC(=O)OCC(C)(C)[C@@H](O)C(=O)NCCC(=O)NCCSC(=O)CC(=O)CCC(=O)O [Compound 140, 6-[(2-[3-[(2R)-4-(acetyloxy)-2-hydroxy-3,3-dimethylbutanamido]propanamido]ethyl)sulfanyl]-4,6-dioxohexanoic acid]
inhibition at 10 µM ([1]; Fibroblast, Leigh GM13411, Assay Condition C, read-out: Decreased ROS by at least 30%): ≥ 30%
inhibition at 10 µM [1, 5]: ≥ 10%

C/C=C/C(=O)SCCNC(=O)CCNC(=O)[C@H](O)C(C)(C)COP(=O)(O)O [Compound 82, (R)—S-(2-(3-(2-hydroxy-3,3-dimethyl-4-(phosphonooxy)butanamido)propanamido)ethyl) (E)-but-2-enethioate]
activation at 10 µM [2, 10]: ≥ 10%
